We go through 9 compounds from patent US20250368606A1, “CRYSTALLINE FORMS AND SALT FORMS OF A KINASE INHIBITOR” (Exelixis, Inc., priority 2021, published 2025).

Holding throughout (type): physicochemical
Series [1] can be described thus: Desolvation / drying attempts at elevated temperature, solids analysed by XRPD. How it is done: Vacuum Oven Desolvation: Salts of Compound 1 that were determined to be solvates by various analytical methods underwent an attempted desolvation. […] Samples were analyzed by XRPD and/or TGA for determination of desolvation success.
A short description of series [2]: Physical stability (form conversion) of solid forms.
The nature of series [3]: Visual (aqueous) solubility estimation. Conditions: water, thermodynamic from solid, visual observation. As for the experimental part:
Solubility Estimation: Aliquots of various solvents were added to measured amounts of Compound 1 with agitation (typically sonication) at stated temperatures until complete dissolution was achieved, as judged by visual observation.
Aqueous Solubility Estimation: Aliquots of water were added to measured amounts of various Compound 1 salts with sonication.

Where [4] appears, read: dried under vacuum at 80° C. for 1 day.

The solubility is the concentration that dissolves in the medium under given conditions.

Turning to `CNC(=O)c1cc2c(Oc3ccc(NC(=O)C4(C(=O)Nc5ccc(F)cc5)CC4)cc3)ccnc2cc1OC` [Compound 1 Hemifumarate Form D], the “form of post-drying solids (XRPD)” value in series [1] (setting [4]) is “a mixture of Compound 1 free base Form A and Compound 1 Hemifumarate Form B”.

Turning to `CNC(=O)c1cc2c(Oc3ccc(NC(=O)C4(C(=O)Nc5ccc(F)cc5)CC4)cc3)ccnc2cc1OC` [Compound 1 Form S], in series [2] (likely NMP solvate, only obtained as a mixture with Form A), the “physical stability of the solvate” value was “readily converts to Form A”.

Regarding `CNC(=O)c1cc2c(Oc3ccc(NC(=O)C4(C(=O)Nc5ccc(F)cc5)CC4)cc3)ccnc2cc1OC` [Form U], the “XRPD Results after desolvation attempt” value is “Form T + Form U” in series [1] (60° C.-72° C. vacuum 6 days); “Form U + Form T” in series [1] (70° C. vacuum 3 days); “Form T (blue grey)” in series [1] (105-120° C. vacuum, 2 hours); “Form T + Form A (grey brown)” in series [1] (170° C. 15 minutes).

On to `CNC(=O)c1cc2c(Oc3ccc(NC(=O)C4(C(=O)Nc5ccc(F)cc5)CC4)cc3)ccnc2cc1OC` [Hemifumarate Form F], for which the “form of post-drying solids (XRPD)” value in series [1] (post-drying sample further dried under vacuum at 88° C. for 1 day) is “maintained the same form”.

As to `CNC(=O)c1cc2c(Oc3ccc(NC(=O)C4(C(=O)Nc5ccc(F)cc5)CC4)cc3)ccnc2cc1OC` [Napsylate Form A], the “physical stability under drying conditions (XRPD)” value in series [1] (48° C. under vacuum for approximately 3 days) is “XRPD peaks attributed to Napsylate Form B increased in intensity”; in series [1] (120° C. for 30 minutes), “A mixture of Napsylate Form B and Form C”.

Regarding `CNC(=O)c1cc2c(Oc3ccc(NC(=O)C4(C(=O)Nc5ccc(F)cc5)CC4)cc3)ccnc2cc1OC` [Hemifumarate Form E], the “form of post-drying solids (XRPD)” value in series [1] (dried under vacuum at 72° C. for 1 day) is given as “unique disordered crystalline pattern”.

As to `CNC(=O)c1cc2c(Oc3ccc(NC(=O)C4(C(=O)Nc5ccc(F)cc5)CC4)cc3)ccnc2cc1OC` [Compound 1 Hemifumarate Form C], the “form of post-drying solids (XRPD)” value in series [1] (setting [4]) is “a mixture of Hemifumarate Form B, with trace Compound 1 free base Form A, and a few additional peaks”.

Consider `CNC(=O)c1cc2c(Oc3ccc(NC(=O)C4(C(=O)Nc5ccc(F)cc5)CC4)cc3)ccnc2cc1OC` [Form R], for which the “XRPD Results after desolvation attempt” value in series [1] (105-120° C. vacuum, 2 hours) is “Form K”; in series [1] (110° C., 1 hour), “Form K + X”.

As to `CNC(=O)c1cc2c(Oc3ccc(NC(=O)C4(C(=O)Nc5ccc(F)cc5)CC4)cc3)ccnc2cc1OC` [Amorphous Compound 1, N-(4-fluorophenyl)-N-(4-((7-methoxy-6-(methylcarbamoyl)quinolin-4-yl)oxy)phenyl)cyclopropane-1,1-dicarboxamide], the “physical stability: resulting form on exposure to elevated temperature” value in series [2] (elevated temperature) is on record as “Material K”. For the same compound, in series [2] (immediately on contact with diethyl ether), the “physical stability: resulting form on contact with diethyl ether” value is “crystallized to a mixture of Forms X and K”. In addition, the solubility in series [3] is < 250 µg/mL.
